Results on 24 molecules are retold here after patent US10544130B2, “Metallo-beta-lactamase inhibitors” (priority 2015, dated 2020).

Data set [1] concerns Klebsiella pneumoniae expressing VIM-1 (IHMA599644). It is filed as cell-based. Particulars: with imipenem 1 μg/ml; 95% inhibition of bacterial growth. In short, it runs like this:
(§1)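 Growth read by absorbance after 22–24 h at 35 °C in CAMHB, with test compound alone or combined with 1 μg/ml imipenem. Inocula came from overnight 35 °C blood-agar colonies, set to a defined OD600 and diluted 1:100. Value is the inhibitor concentration giving synergy.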

In data set [2] the test system is Pseudomonas aeruginosa PAO1 MB9798 (efflux+, IMP-1). Particulars: ratio MITC95 PA 9798/MITC95 PA 9799; imipenem at 2 μg/mL. In short, it runs like this:
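Isogenic PAO1 pair (efflux+ MB9798, efflux− MB9799, both IMP-1) tested by microbroth MIC with fixed imipenem and/or ceftazidime, usually at CLSI breakpoint, plus fixed class A/C inhibitor against AmpC. MBL inhibitor titrated; concentration restoring susceptibility recorded and fold difference between strains taken as efflux extent.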

Data set [3] has as its system Escherichia coli expressing NDM-1 (CLB30005, CLB30016). The class given is cell-based. Particulars: with imipenem 1 μg/ml; 95% inhibition of bacterial growth. In short, it runs like this: as §1
In data set [4] the test system is Serratia marcescens expressing IMP-1 (CL5741). The class given is cell-based. Particulars: with imipenem 1 μg/ml; 95% inhibition of bacterial growth. The gist of the method:
as §1

For the molecule `Nc1nc(-c2cccc(-c3ccc(S(=O)(=O)N[C@H]4CCNC4)c(S(N)(=O)=O)c3-c3nn[nH]n3)c2)c[nH]1` [Example 294, (S)-3′-(2-amino-1H-imidazol-4-yl)-N4-(pyrrolidin-3-yl)-2-(2H-tetrazol-5-yl)-[1,1′-biphenyl]-3,4-disulfonamide], the “Klebsiella pneumoniae (VIM-1) MITC95” value in data set [1] stood at 1.563 µM. Further, in data set [2], the Efflux ratio was determined as 2.00.
For the molecule `Nc1ncccc1-c1ccc(S(=O)(=O)NC[C@@H]2CNCCN2)c(S(N)(=O)=O)c1-c1nn[nH]n1` [Example 313, (S)-4-(2-aminopyridin-3-yl)-N1-(piperazin-2-ylmethyl)-3-(2H-tetrazol-5-yl)benzene-1,2-disulfonamide], in data set [1], the “Klebsiella pneumoniae (VIM-1) MITC95” value is 3.125 µM. In addition, the Efflux ratio in data set [2] is listed as 2.00.
As for `Nc1ncc(-c2ccc(S(=O)(=O)N[C@H]3CNC[C@H]3N)c(S(N)(=O)=O)c2-c2nn[nH]n2)s1` [Example 325, N1-((3S,4R)-4-aminopyrrolidin-3-yl)-4-(2-aminothiazol-5-yl)-3-(2H-tetrazol-5-yl)benzene-1,2-disulfonamide], the “Escherichia coli (NDM-1) MITC95” value in data set [3] turned out to be 0.7813 µM. Also, in data set [4], the “Serratia marcescens (IMP-1) MITC95” value amounted to 1.563 µM. Moreover, in data set [2], the Efflux ratio turned out to be 2.00.
For the molecule `Nc1nc(-c2cccc(-c3ccc(S(=O)(=O)N[C@H]4CNC[C@H]4N)c(S(N)(=O)=O)c3-c3nn[nH]n3)c2)c[nH]1` [Example 327, 3′-(2-amino-1H-imidazol-4-yl)-N4-((3S,4R)-4-aminopyrrolidin-3-yl)-2-(2H-tetrazol-5-yl)[1,1′-biphenyl]-3,4-disulfonamide], the “Klebsiella pneumoniae (VIM-1) MITC95” value in data set [1] was 1.563 µM. In addition, the Efflux ratio in data set [2] was determined as 2.00.
As for `NCCCNC(=O)c1cccc(-c2ccc(S(=O)(=O)NCCN)c(S(N)(=O)=O)c2-c2nn[nH]n2)c1` [Example 341, 4′-(N-(2-aminoethyl)sulfamoyl)-N-(3-aminopropyl)-3′-sulfamoyl-2′-(2H-tetrazol-5-yl)-[1,1′-biphenyl]-3-carboxamide], the “Escherichia coli (NDM-1) MITC95” value in data set [3] amounted to 0.7813 µM. Moreover, the “Serratia marcescens (IMP-1) MITC95” value in data set [4] is 1.563 µM. In addition, the Efflux ratio in data set [2] is 2.00.
`NCCNS(=O)(=O)c1ccc(-c2cccc(SCC(N)CO)c2)c(-c2nn[nH]n2)c1S(N)(=O)=O` (centres unmarked) [Example 354, 3′-((2-amino-3-hydroxypropyl)thio)-N4-(2-aminoethyl)-2-(2H-tetrazol-5-yl)-[1,1′-biphenyl]-3,4-disulfonamide]: the “Escherichia coli (NDM-1) MITC95” value in data set [3] was 0.3906 µM. Also, the “Serratia marcescens (IMP-1) MITC95” value in data set [4] is 1.563 µM. For the same molecule, in data set [2], the Efflux ratio worked out at 4.00.
Turning to `NCCNS(=O)(=O)c1ccc(-c2cccnc2N)c(-c2nn[nH]n2)c1S(N)(=O)=O` [Example 358, N1-(2-aminoethyl)-4-(2-aminopyridin-3-yl)-3-(2H-tetrazol-5-yl)benzene-1,2-disulfonamide], the “Klebsiella pneumoniae (VIM-1) MITC95” value in data set [1] was 1.563 µM. Further, the Efflux ratio in data set [2] came to 2.00.
On to `NCCNS(=O)(=O)c1ccc(-c2cnc3cc[nH]c3c2)c(-c2nn[nH]n2)c1S(N)(=O)=O` [Example 359, N1-(2-aminoethyl)-4-(1H-pyrrolo[3,2-b]pyridin-6-yl)-3-(2H-tetrazol-5-yl)benzene-1,2-disulfonamide], for which, in data set [1], the “Klebsiella pneumoniae (VIM-1) MITC95” value worked out at 1.563 µM. Besides, in data set [2], the Efflux ratio stood at 2.00.
As for `NC[C@H](CO)NS(=O)(=O)c1ccc(-c2cccc(N)n2)c(-c2nn[nH]n2)c1S(N)(=O)=O` [Example 364, (R)—N^1-(1-amino-3-hydroxypropan-2-yl)-4-(6-aminopyridin-2-yl)-3-(2H-tetrazol-5-yl)benzene-1,2-disulfonamide], the “Escherichia coli (NDM-1) MITC95” value in data set [3] was determined as 3.125 µM. Also, in data set [4], the “Serratia marcescens (IMP-1) MITC95” value is 3.125 µM. Besides, the Efflux ratio in data set [2] was found to be 2.00.
Take `Nc1nc2c(-c3ccc(S(=O)(=O)NC[C@]4(N)CCNC4)c(S(N)(=O)=O)c3-c3nn[nH]n3)cccc2s1` [Example 366, (S)-4-(2-aminobenzo[d]thiazol-4-yl)-N^1-((3-aminopyrrolidin-3-yl)methyl)-3-(2H-tetrazol-5-yl)benzene-1,2-disulfonamide]: the “Escherichia coli (NDM-1) MITC95” value in data set [3] stood at 0.7813 µM. The “Serratia marcescens (IMP-1) MITC95” value in data set [4] was 1.563 µM. The Efflux ratio in data set [2] is reported as 1.00.
On to `NC[C@H](N)CNS(=O)(=O)c1ccc(-c2cccc3[nH]c(N)nc23)c(-c2nn[nH]n2)c1S(N)(=O)=O` [Example 370, (S)-4-(2-amino-1H-benzo[d]imidazol-4-yl)-N1-(2,3-diaminopropyl)-3-(2H-tetrazol-5-yl)benzene-1,2-disulfonamide], for which the “Klebsiella pneumoniae (VIM-1) MITC95” value in data set [1] is 1.563 µM. For the same molecule, in data set [2], the Efflux ratio stood at 1.00.
Take `NC[C@H](N)CNS(=O)(=O)c1ccc(-c2cnc(N)s2)c(-c2nn[nH]n2)c1S(N)(=O)=O` [Example 372, (S)-4-(2-aminothiazol-5-yl)-N1-(2,3-diaminopropyl)-3-(2H-tetrazol-5-yl)benzene-1,2-disulfonamide]: in data set [3], the “Escherichia coli (NDM-1) MITC95” value came out at 1.563 µM. Also, the “Serratia marcescens (IMP-1) MITC95” value in data set [4] was 1.563 µM. Further, the Efflux ratio in data set [2] was found to be 2.00.
In the case of `NC[C@@H](N)CNS(=O)(=O)c1ccc(-c2cnc(N)s2)c(-c2nn[nH]n2)c1S(N)(=O)=O` [Example 377, (R)-4-(2-aminothiazol-5-yl)-N1-(2,3-diaminopropyl)-3-(2H-tetrazol-5-yl)benzene-1,2-disulfonamide], the “Escherichia coli (NDM-1) MITC95” value in data set [3] turned out to be 0.7813 µM. Besides, the “Serratia marcescens (IMP-1) MITC95” value in data set [4] was 1.563 µM. Further, the Efflux ratio in data set [2] amounted to 2.00.
With `NCc1nc2c(-c3ccc(S(=O)(=O)N[C@@H](CN)CO)c(S(N)(=O)=O)c3-c3nn[nH]n3)cccc2s1` [Example 381, (S)—N1-(1-amino-3-hydroxypropan-2-yl)-4-(2-(aminomethyl)benzo[d]thiazol-4-yl)-3-(2H-tetrazol-5-yl)benzene-1,2-disulfonamide], the “Escherichia coli (NDM-1) MITC95” value in data set [3] amounted to 0.7813 µM. The “Serratia marcescens (IMP-1) MITC95” value in data set [4] was 1.172 µM. Moreover, the Efflux ratio in data set [2] turned out to be 1.50.
In the case of `NCc1nc2c(-c3ccc(S(=O)(=O)NC(CN)CN)c(S(N)(=O)=O)c3-c3nn[nH]n3)cccc2[nH]1` [Example 385, 4-(2-(Aminomethyl)-1H-benzo[d]imidazol-4-yl)-N1-(1,3-diaminopropan-2-yl)-3-(2H-tetrazol-5-yl)benzene-1,2-disulfonamide], the “Escherichia coli (NDM-1) MITC95” value in data set [3] came to 0.7813 µM. In addition, the “Serratia marcescens (IMP-1) MITC95” value in data set [4] is 0.7813 µM. Besides, in data set [2], the Efflux ratio is given as 1.00.
As to `C[C@@H](CN)NS(=O)(=O)c1ccc(-c2cccc3sc(N)nc23)c(-c2nn[nH]n2)c1S(N)(=O)=O` [Example 389, 4-(2-amino-1,3-benzothiazol-4-yl)-N^1-[(1S)-2-amino-1-methylethyl]-3-(2H-tetrazol-S-yl)benzene-1,2-disulfonamide], the “Serratia marcescens (IMP-1) MITC95” value in data set [4] worked out at 3.125 µM. Moreover, the “Klebsiella pneumoniae (VIM-1) MITC95” value in data set [1] worked out at 3.125 µM.
In the case of `C[C@@H](CN)NS(=O)(=O)c1ccc(-c2ccc(N)nc2)c(-c2nn[nH]n2)c1S(N)(=O)=O` [Example 394, (S)-N^1-(1-aminopropan-2-yl)-4-(6-aminopyridin-3-yl)-3-(2H-tetrazol-5-yl)benzene-1,2-disulfonamide], the “Serratia marcescens (IMP-1) MITC95” value in data set [4] is 1.563 µM. In data set [1], the “Klebsiella pneumoniae (VIM-1) MITC95” value amounted to 3.125 µM.
Take `NCCNS(=O)(=O)c1ccc(-c2ccnc(N)c2)c(-c2nn[nH]n2)c1S(N)(=O)=O` [Example 400, N^1-(2-aminoethyl)-4-(2-aminopyridin-4-yl)-3-(2H-tetrazol-5-yl)benzene-1,2-disulfonamide]: in data set [1], the “Klebsiella pneumoniae (VIM-1) MITC95” value worked out at 1.563 µM.
As to `NCC(CN)NS(=O)(=O)c1ccc(-c2ccc(N)nc2)c(-c2nn[nH]n2)c1S(N)(=O)=O` [Example 404, 4-(6-aminopyridin-3-yl)-N^1-(1,3-diaminopropan-2-yl)-3-(2H-tetrazol-5-yl)benzene-1,2-disulfonamide], the “Klebsiella pneumoniae (VIM-1) MITC95” value in data set [1] is 1.172 µM.
With `NCC(CN)NS(=O)(=O)c1ccc(-c2ccnc(N)c2)c(-c2nn[nH]n2)c1S(N)(=O)=O` [Example 405, 4-(2-aminopyridin-4-yl)-N^1-(1,3-diaminopropan-2-yl)-3-(2H-tetrazol-5-yl)benzene-1,2-disulfonamide], the “Klebsiella pneumoniae (VIM-1) MITC95” value in data set [1] came to 25 µM.
Take `NC[C@H](N)CNS(=O)(=O)c1ccc(-c2ccc(N)nc2)c(-c2nn[nH]n2)c1S(N)(=O)=O` [Example 415, (S)-4-(6-aminopyridin-3-yl)-N^1-(2,3-diaminopropyl)-3-(2H-tetrazol-5-yl)benzene-1,2-disulfonamide]: the “Klebsiella pneumoniae (VIM-1) MITC95” value in data set [1] is 3.125 µM.
`NCCNS(=O)(=O)c1ccc(-c2ccccc2NC(=O)CN)c(-c2nn[nH]n2)c1S(N)(=O)=O` [Example 452, 2-Amino-N-(4′-(N-(2-aminoethyl)sulfamoyl)-3′-sulfamoyl-2′-(2H-tetrazol-5-yl)-[1,1′-biphenyl]-2-yl)acetamide]: in data set [1], the “Klebsiella pneumoniae (VIM-1) MITC95” value came out at 6.25 µM.
In the case of `NC(=O)c1csc(Nc2cccc(-c3ccc(S(=O)(=O)N[C@@H]4CCNC4)c(S(N)(=O)=O)c3-c3nn[nH]n3)c2)n1` [Example 471, (R)-2-((4′-(N-(pyrrolidin-3-yl)sulfamoyl)-3′-sulfamoyl-2′-(2H-tetrazol-5-yl)-[1,1′-biphenyl]-3-yl)amino)thiazole-4-carboxamide], the “Klebsiella pneumoniae (VIM-1) MITC95” value in data set [1] turned out to be 3.125 µM.
With `Nc1ccc(-c2ccc(S(=O)(=O)NC[C@@H]3CCCN3)c(S(N)(=O)=O)c2-c2nn[nH]n2)cn1` [Example 488, (S)-4-(6-aminopyridin-3-yl)-N1-(pyrrolidin-2-ylmethyl)-3-(2H-tetrazol-5-yl)benzene-1,2-disulfonamide], the “Klebsiella pneumoniae (VIM-1) MITC95” value in data set [1] was 1.563 µM.
